The record followed here is ChEMBL document CHEMBL3044646, “Management of tomato leaf mould caused by Cladosporium fulvum with trifloxystrobin” (2007).

Assay type in all cases: functional
Assay [1] concerns Fulvia fulva. Description: Antifungal activity against Passalora fulva infected tomato cultivar Alma F1 plants grown in growth chamber assessed as reduction in lesions on leaf at 10 ug a.i./ml sprayed 96 hr prior to inoculation measured after 22 days relative to control. Also on record: scale not given: the % may be the effect or the level left.
Assay [2] relates to Fulvia fulva. The assay can be described thus: Antifungal activity against Passalora fulva infected tomato cultivar Alma F1 plants grown in growth chamber assessed as reduction in lesions on leaf at 20 ug a.i./ml sprayed 96 hr post-inoculation measured after 22 days relative to control. Also on record: scale not given: the % may be the effect or the level left.
Assay [3] concerns Fulvia fulva. The assay can be described thus: Antifungal activity against Passalora fulva infected tomato cultivar Alma F1 plants grown in growth chamber assessed as reduction in lesions on leaf at 5 ug a.i./ml sprayed 96 hr post-inoculation measured after 22 days relative to control. Also on record: scale not given: the % may be the effect or the level left.
Assay [4] relates to Fulvia fulva. The assay can be described thus: Antifungal activity against Passalora fulva infected tomato cultivar Alma F1 plants grown in growth chamber assessed as reduction in lesions on leaf at 10 ug a.i./ml sprayed 48 hr post-inoculation measured after 22 days relative to control. Also noted: scale not given: the % may be the effect or the level left.
Assay [5] deals with Fulvia fulva. The assay can be described thus: Antifungal activity against Passalora fulva infected tomato cultivar Alma F1 plants grown in growth chamber assessed as reduction in lesions on leaf at 10 ug a.i./ml sprayed 96 hr post-inoculation measured after 22 days relative to control. Also on record: scale not given: the % may be the effect or the level left.
Assay [6] deals with Fulvia fulva. The assay can be described thus: Antifungal activity against Passalora fulva infected tomato cultivar Alma F1 plants grown in growth chamber assessed as inhibition of sporulation at 10 ug a.i./ml applied at 15 days post-inoculation after appearance of symptoms followed by incubation in growth chamber for 72 hr relative to control.
In assay [7] the test system is Fulvia fulva. The assay can be described thus: Antifungal activity against Passalora fulva infected tomato cultivar Alma F1 plants grown in growth chamber assessed as reduction in lesions on leaf at 20 ug a.i./ml sprayed 48 hr prior to inoculation measured after 22 days relative to control. Also on record: scale not given: the % may be the effect or the level left.

Assay [8] concerns Fulvia fulva. Description: Antifungal activity against Passalora fulva infected tomato cultivar Alma F1 plants grown in growth chamber assessed as inhibition of sporulation at 20 ug a.i./ml applied at 15 days post-inoculation after appearance of symptoms followed by incubation in growth chamber for 72 hr relative to control.
In assay [9] the test system is Fulvia fulva. The assay can be described thus: Antifungal activity against Passalora fulva infected tomato cultivar Alma F1 plants grown in growth chamber assessed as reduction in lesions on leaf at 5 ug a.i./ml sprayed 48 hr post-inoculation measured after 22 days relative to control. Also on record: scale not given: the % may be the effect or the level left.
Assay [10] has as its system Fulvia fulva. Description: Antifungal activity against Passalora fulva infected tomato cultivar Alma F1 plants grown in growth chamber assessed as reduction in lesions on leaf at 10 ug a.i./ml sprayed 48 hr prior to inoculation measured after 22 days relative to control. Also noted: scale not given: the % may be the effect or the level left.
Assay [11] concerns Fulvia fulva. The assay can be described thus: Antifungal activity against Passalora fulva infected tomato cultivar Alma F1 plants grown in growth chamber assessed as reduction in lesions on leaf at 20 ug a.i./ml sprayed 24 hr post-inoculation measured after 22 days relative to control. Also noted: scale not given: the % may be the effect or the level left.
Assay [12] deals with Fulvia fulva. The assay can be described thus: Antifungal activity against Passalora fulva infected tomato cultivar Alma F1 plants grown in growth chamber assessed as reduction in lesions on leaf at 5 ug a.i./ml sprayed 48 hr prior to inoculation measured after 22 days relative to control. Also on record: scale not given: the % may be the effect or the level left.
In assay [13] the test system is Fulvia fulva. Description: Antifungal activity against Passalora fulva infected tomato cultivar Alma F1 plants grown in growth chamber assessed as reduction in lesions on leaf at 10 ug a.i./ml sprayed 24 hr post-inoculation measured after 22 days relative to control. Also on record: scale not given: the % may be the effect or the level left.
Assay [14] deals with Fulvia fulva. Description: Antifungal activity against Passalora fulva infected tomato cultivar Alma F1 plants grown in growth chamber assessed as reduction in lesions on leaf at 5 ug a.i./ml sprayed 96 hr prior to inoculation measured after 22 days relative to control. Also noted: scale not given: the % may be the effect or the level left.
Assay [15] deals with Fulvia fulva. The assay can be described thus: Antifungal activity against Passalora fulva infected tomato cultivar Alma F1 plants grown in growth chamber assessed as reduction in lesions on leaf at 5 ug a.i./ml sprayed 24 hr prior to inoculation measured after 22 days relative to control. Also on record: scale not given: the % may be the effect or the level left.
The test system of assay [16] is Fulvia fulva. The assay can be described thus: Antifungal activity against Passalora fulva infected tomato cultivar Alma F1 plants grown in growth chamber assessed as reduction in lesions on leaf at 5 ug a.i./ml sprayed 24 hr post-inoculation measured after 22 days relative to control. Also noted: scale not given: the % may be the effect or the level left.
For assay [17], the system named is Fulvia fulva. The assay can be described thus: Antifungal activity against Passalora fulva infected tomato cultivar Alma F1 plants grown in growth chamber assessed as reduction in lesions on leaf at 10 ug a.i./ml sprayed 24 hr prior to inoculation measured after 22 days relative to control. Also on record: scale not given: the % may be the effect or the level left.

The subject of assay [18] is Fulvia fulva. The assay can be described thus: Antifungal activity against Passalora fulva infected tomato cultivar Alma F1 plants grown in growth chamber assessed as reduction in lesions on leaf at 20 ug a.i./ml sprayed 48 hr post-inoculation measured after 22 days relative to control. Also on record: scale not given: the % may be the effect or the level left.
The test system of assay [19] is Fulvia fulva. Description: Antifungal activity against Passalora fulva infected tomato cultivar Alma F1 plants grown in growth chamber assessed as inhibition of sporulation at 5 ug a.i./ml applied at 15 days post-inoculation after appearance of symptoms followed by incubation in growth chamber for 72 hr relative to control.
Assay [20] relates to Fulvia fulva. Description: Antifungal activity against Passalora fulva infected tomato cultivar Alma F1 plants grown in growth chamber assessed as reduction in lesions on leaf at 20 ug a.i./ml sprayed 24 hr prior to inoculation measured after 22 days relative to control. Also on record: scale not given: the % may be the effect or the level left.
Assay [21] concerns Fulvia fulva. Description: Antifungal activity against Passalora fulva infected tomato cultivar Alma F1 plants grown in growth chamber assessed as reduction in lesions on leaf at 20 ug a.i./ml sprayed 96 hr prior to inoculation measured after 22 days relative to control. Also noted: scale not given: the % may be the effect or the level left.
The test system of assay [22] is Fulvia fulva. Description: Antifungal activity against Passalora fulva infected tomato cultivar Alma F1 plants grown in growth chamber assessed as reduction in lesions on leaf at 100 ug a.i./ml sprayed 48 hr prior to inoculation measured after 22 days relative to control. Also noted: scale not given: the % may be the effect or the level left.
Assay [23] has as its system Fulvia fulva. The assay can be described thus: Antifungal activity against Passalora fulva infected tomato cultivar Alma F1 plants grown in growth chamber assessed as reduction in lesions on leaf at 100 ug a.i./ml sprayed 24 hr post-inoculation measured after 22 days relative to control. Also on record: scale not given: the % may be the effect or the level left.
For assay [24], the system named is Fulvia fulva. The assay can be described thus: Antifungal activity against Passalora fulva infected tomato cultivar Alma F1 plants grown in growth chamber assessed as reduction in lesions on leaf at 100 ug a.i./ml sprayed 96 hr prior to inoculation measured after 22 days relative to control. Also on record: scale not given: the % may be the effect or the level left.

Assay [25] relates to Fulvia fulva. Description: Antifungal activity against Passalora fulva infected tomato cultivar Alma F1 plants grown in growth chamber assessed as reduction in lesions on leaf at 100 ug a.i./ml sprayed 24 hr prior to inoculation measured after 22 days relative to control. Also noted: scale not given: the % may be the effect or the level left.
Assay [26] relates to Fulvia fulva. The assay can be described thus: Antifungal activity against Passalora fulva infected tomato cultivar Alma F1 plants grown in growth chamber assessed as inhibition of sporulation at 100 ug a.i./ml applied at 15 days post-inoculation after appearance of symptoms followed by incubation in growth chamber for 72 hr relative to control. Also on record: scale not given: the % may be the effect or the level left.

For assay [27], the system named is Fulvia fulva. Description: Antifungal activity against Passalora fulva infected tomato cultivar Alma F1 plants grown in growth chamber assessed as reduction in lesions on leaf at 100 ug a.i./ml sprayed 96 hr post-inoculation measured after 22 days relative to control. Also on record: scale not given: the % may be the effect or the level left.
Assay [28] deals with Fulvia fulva. Description: Antifungal activity against Passalora fulva infected tomato cultivar Alma F1 plants grown in growth chamber assessed as reduction in lesions on leaf at 100 ug a.i./ml sprayed 48 hr post-inoculation measured after 22 days relative to control. Also noted: scale not given: the % may be the effect or the level left.

For `CO/N=C(\C(=O)OC)c1ccccc1CO/N=C(\C)c1cccc(C(F)(F)F)c1`, the Activity was 85.3% with Fulvia fulva [1]; 66.7% in the assay with Fulvia fulva [2]; 45.7% in the assay on Fulvia fulva [3]; 76.1% in the assay with Fulvia fulva [4]; 60.1% with Fulvia fulva [5]; 96.5% in the assay on Fulvia fulva [7]. The Activity is 60.9% in the assay on Fulvia fulva [9]; 90.9% in the assay on Fulvia fulva [10]; 93.3% in the assay with Fulvia fulva [11]; 85.3% in the assay with Fulvia fulva [12]; 89% with Fulvia fulva [13]; 72.8% in the assay on Fulvia fulva [14]. For the same compound, the Activity with Fulvia fulva [15] is on record as 88.2%; with Fulvia fulva [16], 69.9%; in the assay with Fulvia fulva [17], 93.9%; in the assay with Fulvia fulva [18], 94.5%; in the assay with Fulvia fulva [20], 96.5%; with Fulvia fulva [21], 94%. Further, the “inhibition (INH)” value was found to be 55.7% in the assay on Fulvia fulva [6], 85.1% in the assay with Fulvia fulva [8] and 23.2% in the assay with Fulvia fulva [19].
On to `N#Cc1c(Cl)c(Cl)c(Cl)c(C#N)c1Cl` [CHLOROTHALONIL], for which the Activity with Fulvia fulva [22] is given as 95.2%; in the assay with Fulvia fulva [23] it was 91%; in the assay on Fulvia fulva [24], 84.4%; in the assay on Fulvia fulva [25] it was 96.5%; in the assay with Fulvia fulva [26], 43.2%; in the assay with Fulvia fulva [27], 48.4%. For the same compound, the Activity with Fulvia fulva [28] came to 73.4%.
